Data taken from PubChem BioAssay AID1963984 (Molecular Pharmacology Branch, DTP, NCI, 2024).
pIC50: −log10 of the molar value.

Test system: 233499-124-R-J3-PDC spheroids with HUVEC/MSC, viability
Test: Anticancer human tumor 233499-124-R-J3-PDC patient-derived colon adenocarcinoma cell line growth inhibition [PI3K]
Details: for pIC50: curve of first compound; for viability, T/C: stronger effect = lower value
Outline: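 Tumor cells were combined with HUVEC and MSCs into spheroids, then dosed with PI3K-inhibitor combinations over half-log ranges capped near clinical Cmax or 10 microM.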

[1] = second compound 0.0316 µM, first compound 0.0316 µM
[2] = second compound 0.0316 µM, first compound 0.1 µM
[3] = second compound 0.0316 µM, first compound 0.316 µM
[4] = second compound 0.0316 µM, first compound 1 µM
[5] = second compound 0.0316 µM, first compound 3.16 µM
[6] = second compound 0.0316 µM, first compound 10 µM
[7] = second compound 0.1 µM, first compound 0.0316 µM
[8] = second compound 0.1 µM, first compound 0.1 µM
[9] = second compound 0.1 µM, first compound 0.316 µM
[10] = second compound 0.1 µM, first compound 1 µM
[11] = second compound 0.1 µM, first compound 3.16 µM
[12] = second compound 0.1 µM, first compound 10 µM
[13] = second compound 0.316 µM, first compound 0.0316 µM
[14] = second compound 0.316 µM, first compound 0.1 µM
[15] = second compound 0.316 µM, first compound 0.316 µM
[16] = second compound 0.316 µM, first compound 1 µM
[17] = second compound 0.316 µM, first compound 3.16 µM
[18] = second compound 0.316 µM, first compound 10 µM
[19] = second compound 1 µM, first compound 0.0316 µM
[20] = second compound 1 µM, first compound 0.1 µM
[21] = second compound 1 µM, first compound 0.316 µM
[22] = second compound 1 µM, first compound 1 µM
[23] = second compound 1 µM, first compound 3.16 µM
[24] = second compound 1 µM, first compound 10 µM
[25] = second compound 3.16 µM, first compound 0.0316 µM
[26] = second compound 3.16 µM, first compound 0.1 µM
[27] = second compound 3.16 µM, first compound 0.316 µM
[28] = second compound 3.16 µM, first compound 1 µM
[29] = second compound 3.16 µM, first compound 3.16 µM
[30] = second compound 3.16 µM, first compound 10 µM
[31] = second compound 10 µM, first compound 0.0316 µM
[32] = second compound 10 µM, first compound 0.1 µM
[33] = second compound 10 µM, first compound 0.316 µM
[34] = second compound 10 µM, first compound 1 µM
[35] = second compound 10 µM, first compound 3.16 µM
[36] = second compound 10 µM, first compound 10 µM
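Also: spheroids exposed to agents for seven days before readout.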
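For viability, T/C in this document: percent viability relative to DMSO vehicle control taken as 100%.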

Compound: C#Cc1c(F)ccc2cc(O)cc(-c3ncc4c(N5CC6CCC(C5)N6)nc(OCC56CCCN5CC(F)C6)nc4c3F)c12 (stereo unspecified) + Cc1nc(NC(=O)N2CCCC2C(N)=O)sc1-c1ccnc(C(C)(C)C(F)(F)F)c1
- pIC50 (second compound 0.0316 µM): < 5.00
- pIC50 (second compound 0.1 µM): < 5.00
- pIC50 (second compound 0.316 µM): < 5.00
- pIC50 (second compound 1 µM): 5.24
- pIC50 (second compound 3.16 µM): 6.09
- pIC50 (second compound 10 µM): > 7.50
- viability, T/C [1]: 91.5%
- viability, T/C [2]: 98.2%
- viability, T/C [3]: 79.3%
- viability, T/C [4]: 89.2%
- viability, T/C [5]: 81.2%
- viability, T/C [6]: 84.5%
- viability, T/C [7]: 108%
- viability, T/C [8]: 107%
- viability, T/C [9]: 91.4%
- viability, T/C [10]: 77.7%
- viability, T/C [11]: 81%
- viability, T/C [12]: 104%
- viability, T/C [13]: 88.7%
- viability, T/C [14]: 83%
- viability, T/C [15]: 83%
- viability, T/C [16]: 77.1%
- viability, T/C [17]: 50.9%
- viability, T/C [18]: 82.4%
- viability, T/C [19]: 77.1%
- viability, T/C [20]: 54.9%
- viability, T/C [21]: 83.4%
- viability, T/C [22]: 64.4%
- viability, T/C [23]: 64.3%
- viability, T/C [24]: 37.7%
- viability, T/C [25]: 65.3%
- viability, T/C [26]: 72%
- viability, T/C [27]: 67%
- viability, T/C [28]: 43.6%
- viability, T/C [29]: 33.6%
- viability, T/C [30]: 61.2%
- viability, T/C [31]: 30.5%
- viability, T/C [32]: 39%
- viability, T/C [33]: 16.3%
- viability, T/C [34]: 26.1%
- viability, T/C [35]: 12.4%
- viability, T/C [36]: 4.04%

Compound: CC(Cn1ccc(-c2ccc(C#N)c(Cl)c2)n1)NC(=O)c1cc(C(C)O)[nH]n1 (stereo unspecified) + Cc1nc(NC(=O)N2CCCC2C(N)=O)sc1-c1ccnc(C(C)(C)C(F)(F)F)c1
- pIC50 (second compound 0.0316 µM): < 5.00
- pIC50 (second compound 0.1 µM): < 5.00
- pIC50 (second compound 0.316 µM): < 5.00
- pIC50 (second compound 1 µM): < 5.00
- pIC50 (second compound 3.16 µM): 5.23
- pIC50 (second compound 10 µM): > 7.50
- viability, T/C [1]: 88.9%
- viability, T/C [2]: 81.6%
- viability, T/C [3]: 101%
- viability, T/C [4]: 97.3%
- viability, T/C [5]: 95.6%
- viability, T/C [6]: 85.6%
- viability, T/C [7]: 102%
- viability, T/C [8]: 106%
- viability, T/C [9]: 98.7%
- viability, T/C [10]: 108%
- viability, T/C [11]: 72.6%
- viability, T/C [12]: 92.5%
- viability, T/C [13]: 55.1%
- viability, T/C [14]: 74.3%
- viability, T/C [15]: 105%
- viability, T/C [16]: 100%
- viability, T/C [17]: 86.7%
- viability, T/C [18]: 77.6%
- viability, T/C [19]: 77.2%
- viability, T/C [20]: 76.5%
- viability, T/C [21]: 83.7%
- viability, T/C [22]: 50.5%
- viability, T/C [23]: 63.6%
- viability, T/C [24]: 81.9%
- viability, T/C [25]: 61.8%
- viability, T/C [26]: 53.8%
- viability, T/C [27]: 59.7%
- viability, T/C [28]: 64.6%
- viability, T/C [29]: 39.6%
- viability, T/C [30]: 52.5%
- viability, T/C [31]: 30.7%
- viability, T/C [32]: 33.9%
- viability, T/C [33]: 35%
- viability, T/C [34]: 42.2%
- viability, T/C [35]: 21.9%
- viability, T/C [36]: 38.9%

Compound: CC1(C)CCC(Nc2ncc(C(F)(F)F)c(-c3c[nH]c4c(P(C)(C)=O)c(C#N)ccc34)n2)CN1 (stereo unspecified) + Cc1nc(NC(=O)N2CCCC2C(N)=O)sc1-c1ccnc(C(C)(C)C(F)(F)F)c1
- pIC50 (second compound 0.0316 µM): 7.18
- pIC50 (second compound 0.1 µM): 7.49
- pIC50 (second compound 0.316 µM): 6.81
- pIC50 (second compound 1 µM): 7.21
- pIC50 (second compound 3.16 µM): > 7.50
- pIC50 (second compound 10 µM): > 7.50
- viability, T/C [1]: 65.2%
- viability, T/C [2]: 32%
- viability, T/C [3]: 32.9%
- viability, T/C [4]: 34.6%
- viability, T/C [5]: 25.1%
- viability, T/C [6]: 6.03%
- viability, T/C [7]: 51.6%
- viability, T/C [8]: 41.4%
- viability, T/C [9]: 29.3%
- viability, T/C [10]: 25.1%
- viability, T/C [11]: 19.8%
- viability, T/C [12]: 2.83%
- viability, T/C [13]: 54.8%
- viability, T/C [14]: 76.9%
- viability, T/C [15]: 23.8%
- viability, T/C [16]: 31.1%
- viability, T/C [17]: 16.6%
- viability, T/C [18]: 3.57%
- viability, T/C [19]: 69%
- viability, T/C [20]: 34.2%
- viability, T/C [21]: 24%
- viability, T/C [22]: 21.9%
- viability, T/C [23]: 29.1%
- viability, T/C [24]: 2.22%
- viability, T/C [25]: 52.1%
- viability, T/C [26]: 34.9%
- viability, T/C [27]: 31%
- viability, T/C [28]: 18.4%
- viability, T/C [29]: 15.9%
- viability, T/C [30]: 0.85%
- viability, T/C [31]: 16.1%
- viability, T/C [32]: 16.2%
- viability, T/C [33]: 25.9%
- viability, T/C [34]: 27.1%
- viability, T/C [35]: 10.1%
- viability, T/C [36]: 0.57%
